Assay results: patent US12252487B2, “Dominant salt forms of pyrimidine derivatives, and crystal forms thereof” (GUANGDONG RAYNOVENT BIOTECH CO., LTD., priority 2019, dated 2025)
Values after ≈ are worked out from the molar mass of the structure shown. Blank lines part the entries; values can stand above or below the compound they belong to.

Legend:
Assay type in all cases: physicochemical
[1] = Solubility of Compound 1 in 19 types of solvents at room temperature; conditions: for solubility: thermodynamic from solid
Source text: Compound 1 was detected at room temperature for its solubility in 19 types of solvents. Specially, Compound 1 obtained in Example 1 was taken as sample for detecting its solubility in methanol, ethanol, water, acetonitrile, dioxane and other solvents.

[2] = Stability study of crystal forms, XRPD characterization on day 14
Description: An amount of sample to be tested was weighed and placed in a dish under conditions including high temperature (60° C.), high humidity (25° C., 92.5% RH), light radiation (25° C., 4500 Lux) and acceleration conditions (40° C., 75% RH), respectively, and sampled for XRPD characterization on day 14. Form I, Form II, Form III were taken for stability study under conditions including high temperature (60° C.), high humidity (25° C., 92.5% RH), light radiation (25° C., 4500 Lux), and acceleration conditions (40° C., 75% RH), and the results are shown in Table 2: […]

[3] = XRPD of crystal form after DVS test
Source text: The crystal form IV is obtained by heating the crystal form III to lose some crystalline water.

[4] = Crystal form transition observed during experiment / post-treatment; conditions: e.g. drying under vacuum at ambient temperature
Source text: The crystal form VII and the crystal form VIII can be obtained by similar method but by different post-treatment means.

Structure (SMILES): O=C(O)[C@H]1C2CCC(CC2)[C@@H]1Nc1nc(-c2n[nH]c3ncc(F)cc23)nc(C2CC2)c1F [Compound 1]
Solubility as a whole compared with WX-216 ([1]; 19 solvents, room temperature): better than that of WX-216 | solubility ([1]; organic solvent or mixture, solvent Acetone, 3000 μL, not dissolved completely at 50° C.): < 3300 µg/mL | solubility ([1]; organic solvent or mixture, solvent Acetonitrile, 3000 μL, not dissolved completely at 50° C.): < 3300 µg/mL | solubility ([1]; organic solvent or mixture, solvent Dichloromethane, 3000 μL, not dissolved completely at 50° C.): < 3300 µg/mL | solubility ([1]; organic solvent or mixture, solvent Dimethylformamide, 200 μL): > 50000 µg/mL | solubility ([1]; organic solvent or mixture, solvent Dimethylsulfoxide, 200 μL): > 50000 µg/mL | solubility ([1]; organic solvent or mixture, solvent Dioxane, 3000 μL, not dissolved completely at 50° C.): < 3300 µg/mL | solubility ([1]; organic solvent or mixture, solvent Ethanol, 3000 μL, not dissolved completely at 50° C.): < 3300 µg/mL | solubility ([1]; organic solvent or mixture, solvent Ethyl acetate, 3000 μL, not dissolved completely at 50° C.): < 3300 µg/mL | solubility ([1]; organic solvent or mixture, solvent Ethyl formate, 3000 μL, not dissolved completely at 50° C.): < 3300 µg/mL | solubility ([1]; organic solvent or mixture, solvent Ethylene glycol dimethyl ether, 3000 μL, not dissolved completely at 50° C.): < 3300 µg/mL | solubility ([1]; organic solvent or mixture, solvent Ethylene glycol monomethyl ether, 200 μL): > 50000 µg/mL | solubility ([1]; organic solvent or mixture, solvent Iso-propanol, 3000 μL, not dissolved completely at 50° C.): < 3300 µg/mL | solubility ([1]; organic solvent or mixture, solvent Methanol, 500 μL): 20000 to 50000 µg/mL (≈ 45.4 to 114 mM) | solubility ([1]; organic solvent or mixture, solvent Methyl isobutyl ketone, 3000 μL, not dissolved completely at 50° C.): < 3300 µg/mL | solubility ([1]; organic solvent or mixture, solvent Methyl tert-butyl ether, 3000 μL, not dissolved completely at 50° C.): < 3300 µg/mL | solubility ([1]; organic solvent or mixture, solvent N-hexane, 3000 μL, not dissolved completely at 50° C.): < 3300 µg/mL | solubility ([1]; organic solvent or mixture, solvent N-propanol, 3000 μL, not dissolved completely at 50° C.): < 3300 µg/mL | solubility ([1]; organic solvent or mixture, solvent Tetrahydrofuran, 3000 μL, not dissolved completely at 50° C.): < 3300 µg/mL | solubility ([1]; solvent Water, 200 μL): > 50000 µg/mL

Structure (SMILES): O=C(O)[C@H]1C2CCC(CC2)[C@@H]1Nc1nc(-c2n[nH]c3ncc(F)cc23)nc(C2CC2)c1F [Crystal Form II]
Results on Day 14 (XRPD) ([2]; High humidity (25° C., 92.5% RH)): No changes | Results on Day 14 (XRPD) ([2]; High temperature (60° C.)): No changes

Structure (SMILES): O=C(O)[C@H]1C2CCC(CC2)[C@@H]1Nc1nc(-c2n[nH]c3ncc(F)cc23)nc(C2CC2)c1F [Crystal Form I]
Results on Day 14 (XRPD) ([2]; Acceleration conditions (40° C., 75% RH)): No changes | Results on Day 14 (XRPD) ([2]; Light radiation (25° C., 4500 Lux)): No changes

Structure (SMILES): O=C(O)[C@H]1C2CCC(CC2)[C@@H]1Nc1nc(-c2n[nH]c3ncc(F)cc23)nc(C2CC2)c1F [crystal form IV]
Crystal form change after DVS test (XRPD) [3]: does not change

Structure (SMILES): O=C(O)[C@H]1C2CCC(CC2)[C@@H]1Nc1nc(-c2n[nH]c3ncc(F)cc23)nc(C2CC2)c1F [crystal form IX]
Stability of the crystal form as concluded from crystal form transitions [4]: intermediate metastable crystal form

Structure (SMILES): O=C(O)[C@H]1C2CCC(CC2)[C@@H]1Nc1nc(-c2n[nH]c3ncc(F)cc23)nc(C2CC2)c1F [crystal form VIII]
Stability of the crystal form as concluded from crystal form transitions [4]: high stability

Further lines, results first:

Stability of the crystal form as concluded from crystal form transitions [4]: high stability
Structure (SMILES): O=C(O)[C@H]1C2CCC(CC2)[C@@H]1Nc1nc(-c2n[nH]c3ncc(F)cc23)nc(C2CC2)c1F [crystal form VII]

Stability of the crystal form as concluded from crystal form transitions [4]: unstable crystal form
Structure (SMILES): O=C(O)[C@H]1C2CCC(CC2)[C@@H]1Nc1nc(-c2n[nH]c3ncc(F)cc23)nc(C2CC2)c1F [crystal form VI]

Stability of the crystal form as concluded from crystal form transitions [4]: high stability
Structure (SMILES): O=C(O)[C@H]1C2CCC(CC2)[C@@H]1Nc1nc(-c2n[nH]c3ncc(F)cc23)nc(C2CC2)c1F [crystal form V]
